Data taken from EP4748841A1, “BICYCLO[5,6] IMIDAZOLE PYRIMIDONE DERIVATIVE AND PREPARATION METHOD THEREFOR AND USE THEREOF” (Shujing Biopharma Co., Ltd, priority 2023, dated 2025).

What was measured:
Format in all cases: in vitro ADME
[1] = Liver microsome stability experiment (human); settings: for CLint scaled at 1 µM: human, liver microsomes, pH 7.4, Human liver microsomes
Protocol: (§1) This experiment aimed to evaluate the phase I metabolic stability of the compounds of the present disclosure in liver microsomes of SD rats, beagle dogs, cynomolgus monkeys, and humans.
(§2) • (1) Buffer preparation: 73.21 g of dipotassium hydrogen phosphate trihydrate and 10.78 g of potassium dihydrogen phosphate were dissolved in 4000 mL of ultrapure water. The pH of the solution was adjusted to within 7.40 ± 0.10 using 10% phosphoric acid or 1 M potassium hydroxide, resulting in a final concentration of 100 mM. • (2) Solution preparation and dilution: Stock solutions of the test compounds at a concentration of 10 mM were prepared in dimethyl sulfoxide (DMSO) and stored at 4 °C, and they were diluted into 100 µM working solutions with pure acetonitrile when used. A stock solution of the control compound testosterone at a concentration of 10 mM was prepared in DMSO and stored at -20 °C, and it was diluted into a 400 µM working solution with pure acetonitrile when used. • (3) Termination solution preparation: The termination solution was an acetonitrile solution containing an internal standard (terfenadine). The prepared termination solution was stored in a refrigerator at 2-8 °C. • (4) Liver microsome solution preparation: Liver microsomes from various species (SD rat, beagle dog, cynomolgus monkey, and human) were diluted into 20× working solutions using 100 mM potassium phosphate buffer. The final concentration of the liver microsomes in the reaction system was 0.5 mg/mL. • (5) Reduced nicotinamide adenine dinucleotide phosphate (NADPH) regeneration system preparation: Appropriate amounts of nicotinamide adenine dinucleotide phosphate (NADP), glucose-6-phosphate (G6P), magnesium chloride (MgCl2), and glucose-6-phosphate dehydrogenase (G6PDH) were weighed to prepare stock solutions at concentrations of 65.33 mM, 330 mM, 300 mM, and 250 Units/mL, respectively. The four stock solutions described above were each added to an appropriate amount of buffer, and the mixture was mixed well by gently inverting up and down. The final concentrations of NADP, G6P, MgCl2, and G6PDH in the NADPH regeneration system were 2.65 mM, 10.2 mM, 6.12 mM, and 2.45 Units/mL, respectively. • (6) Incubation process: The incubation was completed in 96-well plates. Several incubation plates were prepared and named T0, T5, T10, T20, T40, T60, and NCF60, respectively. The first 6 plates corresponded to reaction time points of 0 min, 5 min, 10 min, 20 min, 40 min, and 60 min, respectively. The NCF60 plate was incubated for 60 min with potassium phosphate buffer replacing the NADPH regeneration system solution. Samples under all conditions were prepared in triplicate.
(§3) 2 µL of the test compound or control compound and 100 µL of microsome working solution (containing 1 mg/mL liver microsome protein) were added to each of the T0, T5, T10, T20, T40, T60, and NCF60 plates, and only the microsome working solution was added to the Blank 60 plate. The plates described above were then pre-incubated in a 37 °C water bath for about 10 min.
(§4) After the pre-incubation was completed, 98 µL of the NADPH regeneration system working solution was added to each sample well except for the NCF60 plate and the T0 plate to initiate the reaction, and 98 µL of potassium phosphate buffer was added to each well of the NCF60 plate. Therefore, for the sample wells containing the test sample or control substance working solution, the final concentrations of TC and testosterone in the reaction were 1 µM and 4 µM, respectively, the concentration of liver microsomes was 0.5 mg/mL, and the final concentrations of DMSO and acetonitrile in the reaction system were 0.01% (v/v) and 0.99% (v/v), respectively.
(§5) After incubation for an appropriate time (e.g., 5 min, 10 min, 20 min, 40 min, and 60 min), 600 µL of a termination solution (an acetonitrile solution containing 100 ng/mL […]) was added to each test compound sample well and control compound sample well to terminate the reaction. […]

[2] = Liver microsome stability experiment (cynomolgus monkey); settings: pH 7.4, Cynomolgus monkey liver microsomes, 0.5 mg/mL; for CLint scaled at 1 µM: cynomolgus monkey, liver microsomes
Protocol: as §1, §2, §3, §4, §5

[3] = Liver microsome stability experiment (beagle dog); settings: for CLint scaled at 1 µM: beagle, dog, liver microsomes, pH 7.4, Beagle dog liver microsomes
Protocol: as §1, §2, §3, §4, §5

[4] = Liver microsome stability experiment (SD rat); settings: for CLint scaled at 1 µM: SD, rat, liver microsomes, pH 7.4, SD rat liver microsomes
Protocol: as §1, §2, §3, §4, §5

[5] = 0.5 mg/mL, 1 µM, read-out: CL(liver)
[6] = 0.5 mg/mL, 1 µM, read-out: CLint(liver)
[7] = read-out: Clearance rate classification

CLint scaled at 1 µM [1, 5]: 15.4 mL/min/kg
CLint scaled at 1 µM [1, 6]: 60.3 mL/min/kg
CLint scaled at 1 µM [1, 7]: > 48.3 mL/min/kg
half-life at 1 µM ([1]; pH 7.4, Human liver microsomes, 0.5 mg/mL, 1 µM): 20.7 min
CLint scaled at 1 µM ([2]; read-out: CL(liver)): 39.8 mL/min/kg
CLint scaled at 1 µM ([2]; read-out: CLint(liver)): 461 mL/min/kg
half-life at 1 µM [2]: 4.06 min
CLint scaled at 1 µM [3, 5]: 8.8 mL/min/kg
CLint scaled at 1 µM [3, 6]: 12.4 mL/min/kg
CLint scaled at 1 µM [3, 7]: ≤ 13.2 mL/min/kg
half-life at 1 µM ([3]; pH 7.4, Beagle dog liver microsomes, 0.5 mg/mL, 1 µM): 162 min
CLint scaled at 1 µM [4, 5]: < 10.8 mL/min/kg
CLint scaled at 1 µM [4, 6]: < 13.4 mL/min/kg
CLint scaled at 1 µM [4, 7]: ≤ 23.7 mL/min/kg
half-life at 1 µM ([4]; pH 7.4, SD rat liver microsomes, 0.5 mg/mL, 1 µM): > 186 min
Structure (SMILES): COCCN1CCC(N(Cc2ccc(-c3ccc(C(F)(F)F)cc3)cc2)C(=O)Cn2c(SCc3cccc(F)c3F)cc(=O)c3ccccc32)CC1 [Rilapladib]
